# Assay results published in patent US9663478B2, “Benzotriazine oxides as drugs targeting Mycobacterium tuberculosis” (priority 2011, dated 2017).
# “Also recorded” adds a separate entry of the source.
# How the values were obtained:
# [1] = test system: Mycobacterium abscessus ATCC 19977; assay: Spectrum of antimicrobial activity; assay type: cell-based
# [2] = test system: Klebsiella pneumoniae ATCC 700721; assay: Spectrum of antimicrobial activity; assay type: cell-based
# [3] = test system: Klebsiella pneumoniae ATCC 43816; assay: Spectrum of antimicrobial activity; assay type: cell-based
# [4] = test system: Enterobacter aerogenes ATCC 29751; assay: Spectrum of antimicrobial activity; assay type: cell-based
# [5] = test system: Salmonella typhimurium -Hisg46 SRI Collection; assay: Spectrum of antimicrobial activity; assay type: cell-based
# [6] = test system: Enterococcus faecium ATCC 19434; assay: Spectrum of antimicrobial activity; assay type: cell-based
# [7] = test system: mouse lymphoma cell tk+/−→tk−/− gene mutation; assay: Mouse lymphoma cell tk+/−→tk−/− gene mutation (MOLY) assay; assay type: cell-based
# Text: (§1) A liability in developing any bioreductively-activated antimicrobial drug is the potential for mutagenicity. Because the basis for activity of these compounds is the generation of intermediate radical species, undesirable mutagenicity poses a risk, as has been documented for many classes of bioreductive drugs, including the BTO tirapazamine (TPZ).^19,20 The most convenient methodology for assessing the potential to induce genetic damage is to use the plate incorporation method with Salmonella typhimurium strains TA98 and TA100, commonly known as the Ames assay. The Salmonella tester strains have mutations in the histidine operon, a mutation that leads to defective lipopolysaccharide (rfa), and a deletion that covers genes involved in the synthesis of biotin (bio) and in the repair of ultraviolet-induced DNA damage (uvrB).^21,22 These mutations make the strains more permeable to many molecules and increase their susceptibility to the mutagenic effects of these molecules. Given that the hypothesized mechanism of the BTO compounds is to selectively form cytotoxic radical species in bacteria over mammalian cells, a microbial mutagenicity assay is not ideal, but was used to benchmark their activities in this assay. […] Individual plate counts and their means and standard deviations, along with the condition of the background lawn, are presented in SI Table 2.
# Experiments were conducted using a standard procedure for evaluating mutagenic potential.^23,24 The details on cell line, experimental procedures and data interpretaion have been previously published.^54 The following endpoints were evaluated in cells following exposure to 15fa and 20q: cell growth during expression periods, relative suspension growth, relative total growth, relative cloning efficiency, mutation frequency, and numbers of small (≦0.6 mm in diameter) colonies from trifluorothymidine-resistant (TFT^r) cells.
# [8] = test system: Salmonella typhimurium tester strain TA100; assay: Salmonella/microsome plate incorporation assay (Ames screen), TA100; assay type: cell-based
# Text: as §1
# Experimental compounds were screened for microbial mutagenicity activity using the plate incorporation method with Salmonella typhimurium tester strains TA98 and TA100, in the presence and absence of an Aroclor 1254-induced rat-liver metabolic activation system containing 10% S9 (MA). The presence of the appropriate genetic characteristics was verified for the strains used in this study. Stock solutions were made by dissolving each test sample in dimethyl sulfoxide (DMSO) at 5 mg/ml. These initial stock concentrations were then serially diluted to achieve dose formulations of 100, 50, 10, 5, 1, 0.5, and 0.1 μg/plate (dosing volume 100 μl). Test plates were compared with the control plates for their revertant count and for the condition of the background bacterial lawn. A test article was considered a mutagen when the mean number of revertant colonies on the test plates exceeds the mean solvent control counts by at least a two-fold margin. Dose relatedness was also taken into account when evaluating a mutagenic response. Cytotoxicity was estimated by several parameters: a substantial decrease in the number of revertant colonies on the test plates, clearing or absence of the background bacterial lawn growth, formation of pinpoint nonrevertant colonies, or complete absence of bacterial growth.
# [9] = Plasma pharmacokinetics in female mice after oral administration; assay type: in vivo, mouse; details: female mice, oral, 100 mg/kg
# Procedure: In order to validate BTOs as a new lead series for the treatment of TB, we also evaluated their systemic exposure in the mouse after oral administration. A single dose (100 mg/kg) of 8a and 20q were administered to mice in order to profile the pharmacokinetics for the BTOs (Table 7). […] The elimination half-life was for each compound was shorter than our ideal target values, but the Tmax values indicate that they are rapidly absorbed after oral administration (FIGURE).
# All pharmacokinetic studies were performed in accordance with SRI International's animal care policies in an AAALAC and OLAW accredited facility. The procedure for the pharmacokinetics studies followed a previously described method.^55 Briefly, the plasma pharmacokinetics of selected BTO derivatives were determined in female CD1 mice after administration of a single dose (100 mg/kg) by oral gavage. Blood was collected from three mice per time point at 5, 15, 30, and 60 min and 2, 4, 6, 8, and 24 h after dose administration. Means and standard deviations were calculated for the plasma drug concentrations at each time point. Pharmacokinetic analysis was performed using non compartmental methods (WinNonlin® Professional, Version 5.2, Pharsight Corp, Mountain View, Calif.). The following parameters were calculated: time to maximum plasma concentration (Tmax), maximum plasma concentration (Cmax), maximum plasma concentration extrapoloated to time 0 (C0), area under the plasma concentration-time curve to the last time point (AUClast) and to infinity (AUCinf).
# [10] = test system: Vero cells; assay: Cytotoxicity against Vero cells (Cell Titer-Glo); details: 72 h; Tables 1-4 and text
# [11] = TA100, with metabolic activation (10% S9), 0.1 μg per plate
# [12] = TA100, with metabolic activation (10% S9), 0.5 μg per plate
# [13] = TA100, with metabolic activation (10% S9), 1 μg per plate
# [14] = TA100, with metabolic activation (10% S9), 5 μg per plate
# [15] = TA100, with metabolic activation (10% S9), 10 μg per plate
# [16] = TA100, with metabolic activation (10% S9), 50 μg per plate
# [17] = TA100, with metabolic activation (10% S9), 100 μg per plate
# [18] = TA100, without metabolic activation, 0.1 μg per plate
# [19] = TA100, without metabolic activation, 0.5 μg per plate
# [20] = TA100, without metabolic activation, 1 μg per plate
# [21] = TA100, without metabolic activation, 5 μg per plate
# [22] = TA100, without metabolic activation, 10 μg per plate
# [23] = TA100, without metabolic activation, 50 μg per plate
# [24] = TA100, without metabolic activation, 100 μg per plate
smiles,measurement,setting,value
"[O-][n+]1nc(N2CCCC2)[n+]([O-])c2cc3c(cc21)CCC3 [Compound 20q, 3-(pyrrolidin-1-yl)-7,8-dihydro-6H-indeno[5,6-e][1,2,4]triazine 1,4-dioxide]",susceptibility of M. abscessus,[1],resistant
same,"Antimicrobial activity, Mycobacterium abscessus",[1]; ATCC 19977,>32 µg/mL
same,"Antimicrobial activity, Klebsiella pneumoniae",[2],>32 µg/mL
same,"Antimicrobial activity, Klebsiella pneumoniae",[3],>32 µg/mL
same,"Antimicrobial activity, Enterobacter aerogenes",[4],>32 µg/mL
same,"Antimicrobial activity, Salmonella typhimurium -Hisg46",[5],>32 µg/mL
same,"Antimicrobial activity, Enterococcus faecium",[6],>32 µg/mL
same,Mutagenic potential in MOLY assay,"[7]; 10 μg/mL, +S9, 4-Hr Exposure",Negative
same,Mutagenic potential in MOLY assay,"[7]; 10 μg/mL, +S9, 24-Hr Exposure",Negative
same,Mutagenic potential in MOLY assay,"[7]; 10 μg/mL, −S9, 4-Hr Exposure",Negative
same,Mutagenic potential in MOLY assay,"[7]; 10 μg/mL, −S9, 24-Hr Exposure",Negative
same,Mutagenic potential in MOLY assay,"[7]; 25 μg/mL, +S9, 4-Hr Exposure",Negative^a
same,Mutagenic potential in MOLY assay,"[7]; 25 μg/mL, +S9, 24-Hr Exposure",Negative
same,Mutagenic potential in MOLY assay,"[7]; 25 μg/mL, −S9, 4-Hr Exposure",Negative
same,Mutagenic potential in MOLY assay,"[7]; 25 μg/mL, −S9, 24-Hr Exposure",Negative
same,Mutagenic potential in MOLY assay,"[7]; 50 μg/mL, +S9, 4-Hr Exposure",Negative
same,Mutagenic potential in MOLY assay,"[7]; 50 μg/mL, +S9, 24-Hr Exposure",Negative
same,Mutagenic potential in MOLY assay,"[7]; 50 μg/mL, −S9, 4-Hr Exposure",Negative
same,Mutagenic potential in MOLY assay,"[7]; 50 μg/mL, −S9, 24-Hr Exposure",Negative
same,Mutagenic potential in MOLY assay,"[7]; 100 μg/mL, +S9, 4-Hr Exposure",Negative
same,Mutagenic potential in MOLY assay,"[7]; 100 μg/mL, +S9, 24-Hr Exposure",Negative
same,Mutagenic potential in MOLY assay,"[7]; 100 μg/mL, −S9, 4-Hr Exposure",Negative
same,Mutagenic potential in MOLY assay,"[7]; 100 μg/mL, −S9, 24-Hr Exposure",Negative
same,mutation frequency in MOLY assay,"[7]; presence or absence of S9, non-cytotoxic dose levels, up to 100 μg/mL for 20q",no mutagenic activity; also recorded: negative response for mutation frequency
same,Mean revertants per plate,[8]; [11],171.5
same,Ratio treated/solvent,[8]; [11],1.1
same,Mean revertants per plate,[8]; [12],204.0
same,Ratio treated/solvent,[8]; [12],1.3
same,Mean revertants per plate,[8]; [13],180.5
same,Ratio treated/solvent,[8]; [13],1.1
same,Mean revertants per plate,[8]; [14],267.0
same,Ratio treated/solvent,[8]; [14],1.7
same,Mean revertants per plate,[8]; [15],291.5
same,Ratio treated/solvent,[8]; [15],1.8
same,Mean revertants per plate,[8]; [16],700.5
same,Ratio treated/solvent,[8]; [16],4.4
same,Mean revertants per plate,[8]; [17],916.0
same,Ratio treated/solvent,[8]; [17],5.8
same,Mean revertants per plate,[8]; [18],173.0
same,Ratio treated/solvent,[8]; [18],1.2
same,Mean revertants per plate,[8]; [19],155.0
same,Ratio treated/solvent,[8]; [19],1.0
same,Mean revertants per plate,[8]; [20],206.0
same,Ratio treated/solvent,[8]; [20],1.4
same,Mean revertants per plate,[8]; [21],303.0
same,Ratio treated/solvent,[8]; [21],2.0
same,Mean revertants per plate,[8]; [22],392.0
same,Ratio treated/solvent,[8]; [22],2.6
same,Mean revertants per plate,[8]; [23],1033.5
same,Ratio treated/solvent,[8]; [23],7.0
same,Mean revertants per plate,[8]; [24],1468.0
same,Ratio treated/solvent,[8]; [24],9.9
same,"number of revertant colonies, TA100",[8]; presence and absence of metabolic activation,dose-related increases in the number of revertant colonies
same,AUCinf,[9],11248 ng·h/mL
same,AUClast,[9],11219 ng·h/mL
same,Cmax,[9],9767 ng/mL
same,Tmax,[9],0.25 h
same,t1/2,[9],1.9 h
same,Vero Tox CC50,[10],25 µg/mL
